In the supplement of paper PMC11616607:

Legend:
Assay in all cases: drug sensitivity score (DSS) from 5-point dose-response viability curve (DSS (area-under-curve based score)); higher = more sensitive (stronger growth inhibition or killing); extreme values may be limits of the assay
Details in all cases: exposure time: 72 h; concentration range: 5 concentrations over 10,000-fold range
[1] = system: Ovsaho
In short: (§1)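 Viability of ovarian cancer and normal ovarian cell lines was read by CellTiter-Glo luminescence after 3 days at 37°C and 5% CO2 in 384-well plates holding 1,500 cells per well. Drugs had been dispensed in DMSO or water with an Echo 550 at five concentrations over a 10,000-fold range. Using Breeze software, a drug sensitivity score was assigned per cell line and drug, higher scores meaning more sensitive, and zero means no response.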

[2] = system: OVCAR5
In short: as §1

[3] = system: HOSE1C
In short: as §1

[4] = system: OVCAR4
In short: as §1

[5] = system: OV90
In short: as §1

[6] = system: COV318
In short: as §1

[7] = system: JHOS2
In short: as §1

[8] = system: HOSE2C
In short: as §1

[9] = system: Kuramochi
In short: as §1

[10] = system: COV362
In short: as §1

[11] = system: CAOV3
In short: as §1

[12] = system: OVCAR8
In short: as §1

SMILES	drug sensitivity score [1]	drug sensitivity score [2]	drug sensitivity score [3]	drug sensitivity score [4]	drug sensitivity score [5]	drug sensitivity score [6]	drug sensitivity score [7]	drug sensitivity score [8]	drug sensitivity score [9]	drug sensitivity score [10]	drug sensitivity score [11]	drug sensitivity score [12]
O=C(CCCCCCC(=O)Nc1ccc([C@H]2O[C@@H](CSc3nc(-c4ccccc4)c(-c4ccccc4)o3)C[C@@H](c3ccc(CO)cc3)O2)cc1)NO [Tubacin]	2.3	2.4	2.5	2.7	2.4	2	1.7	2.6	2.6	0.7	1.8	5.6
CC1(C)NC(=O)N(c2ccc([N+](=O)[O-])c(C(F)(F)F)c2)C1=O [Nilutamide]	0	0.1	0.8	0	0	0	0.6	0	1.6	0	0	0
CC(=O)c1c(C)c2cnc(Nc3ccc(N4CCNCC4)cn3)nc2n(C2CCCC2)c1=O [Palbociclib]	3	3.6	4.5	0.1	0.8	3.2	6.3	2.9	1.4	1	0.1	0.5
CN(C)C(=N)NC(=N)N [Metformin]	0	0	0	0	0	0	0	0	0	0	0	0
O=c1[nH]c(=O)n([C@H]2C[C@H](O)[C@@H](CO)O2)cc1F [Floxuridine]	6.2	8.1	4.7	9.3	12.3	0	0.8	2.5	8.7	5.4	14.3	18.1
CO[C@H](C(=O)[C@@H](O)[C@@H](C)O)[C@@H]1Cc2cc3cc(O[C@H]4C[C@@H](O[C@@H]5C[C@@H](O)[C@H](O)[C@@H](C)O5)[C@H](O)[C@@H](C)O4)c(C)c(O)c3c(O)c2C(=O)[C@H]1O[C@H]1C[C@@H](O[C@@H]2C[C@@H](O)[C@@H](O[C@@H]3C[C@](C)(O)[C@H](O)[C@@H](C)O3)[C@@H](C)O2)[C@H](O)[C@@H](C)O1 [Plicamycin]	0.1	16.5	0	5.7	19.1	0	0	0	0	2.9	8.8	19.4
COc1cc(Nc2ncc(F)c(Nc3ccc4c(n3)N(COP(=O)(O)O)C(=O)C(C)(C)O4)n2)cc(OC)c1OC [Fostamatinib]	2.4	3.7	2	2.9	2.9	1.5	0.8	8.4	2.4	0.8	0	0.3
O=C(NOC[C@H](O)CO)c1ccc(F)c(F)c1Nc1ccc(I)cc1F	13.5	9.7	0	2.1	21.6	0	3.2	0.4	5.2	2.4	11.7	1.7
CO[C@H]1C[C@@H]2CC[C@@H](C)[C@@](O)(O2)C(=O)C(=O)N2CCCC[C@H]2C(=O)O[C@H]([C@H](C)C[C@@H]2CC[C@@H](OP(C)(C)=O)[C@H](OC)C2)CC(=O)[C@H](C)/C=C(\C)[C@@H](O)[C@@H](OC)C(=O)[C@H](C)C[C@H](C)/C=C/C=C/C=C/1C [Ridaforolimus]	4.6	4.6	2.3	2.6	10.3	0.6	4.3	1	3.2	0	8.7	6.8
CC(C)Oc1ccc(C(=O)N[C@H](CNC(=O)CN(C)C)Cc2ccc(-c3cn4cccc([C@H](C)O)c4n3)cc2)cc1Cl	10.2	16.3	14.1	4.2	12	3.9	7.2	11.1	9	6	17.5	14
C[C@@H]1CCN(C(=O)CC#N)C[C@@H]1N(C)c1ncnc2[nH]ccc12 [Tofacitinib]	0	0.2	2.8	0	0.3	0	0	0.2	0	0	0	0
COc1cc(N2CCC(N3CCN(C)CC3)CC2)ccc1Nc1ncc(Cl)c(Nc2ccccc2P(C)(C)=O)n1 [Brigatinib]	4.3	3.7	0.3	1.7	4	3.5	2.1	2.9	3.5	1.6	3.3	0
Cc1cc(Nc2nc(N[C@@H](C)c3ncc(F)cn3)ncc2Cl)[nH]n1 [AZD1480]	0.7	0.5	0	0.5	0	0	0	2.8	0	0	0	0
CO[C@H]1C[C@@H]2CC[C@@H](C)[C@@](O)(O2)C(=O)C(=O)N2CCCC[C@H]2C(=O)O[C@H]([C@H](C)C[C@@H]2CC[C@@H](OCCO)[C@H](OC)C2)CC(=O)[C@H](C)/C=C(\C)[C@@H](O)[C@@H](OC)C(=O)[C@H](C)C[C@H](C)/C=C/C=C/C=C/1C [Everolimus]	4	6.2	4.3	2.5	10	2.2	4.7	6.3	5.9	0.6	4.8	5.5
Nc1nc(Cl)nc2c1ncn2[C@H]1C[C@H](O)[C@@H](CO)O1 [Cladribine]	0.1	2.1	0	0	1.6	0	3.1	0	0	0.1	4.2	9.8
O=C(O)CC1CC(c2ccccc2)=NO1 (stereo not drawn) [VGX-1027]	0	0	0	0	0	0	0	0	0	0	0	0
COc1cc(C(=O)O)ccc1NC(=O)[C@@H]1N[C@@H](CC(C)(C)C)[C@](C#N)(c2ccc(Cl)cc2F)[C@H]1c1cccc(Cl)c1F [Idasanutlin]	0	0.7	16	1.2	0	0	0	10.5	0	0	0	3.3
O=C(Nc1cccnc1)N1CCC(Cc2cccc(Oc3ccc(C(F)(F)F)cn3)c2)CC1 [PF-3845]	0	1	0	0.3	2	0	0	0	0	0	1.6	6.5
CN(C)CCOc1ccc(/C(=C(/CCCl)c2ccccc2)c2ccccc2)cc1 [Toremifene]	3.5	4.9	3.5	2	5.3	2.3	2	1.6	3.5	0.6	1.8	2.9
C#Cc1cccc(Nc2ncnc3cc(OCCOC)c(OCCOC)cc23)c1 [Erlotinib]	4.8	4.4	0	2	1.5	0.8	3	0.3	1.6	0.1	7.5	2.5
CCCc1cc(C)[nH]c(=O)c1CNC(=O)c1cc(-c2ccnc(N3CCN(C)CC3)c2)cc2c1cnn2C(C)C [GSK343]	0	0	0	0	0	0	0	0	0	0	0	0
C[C@]12CC[C@@H]3c4ccc(O)cc4C[C@@H](CCCCCCCCC[S+]([O-])CCCC(F)(F)C(F)(F)F)[C@H]3[C@@H]1CC[C@@H]2O (stereo partly drawn) [Fulvestrant]	0	0	0	0	0	0	0	0	0	0	0	0
c1cn2cc(-c3ccc4cn[nH]c4c3)nc(Nc3ccc(N4CCOCC4)cc3)c2n1 [Entospletinib]	0	1.3	0	0	0	0	0.1	0	0	0	0	1.7
COc1cc2nccc(Oc3ccc(NC(=O)NC4CC4)c(Cl)c3)c2cc1C(N)=O [Lenvatinib]	0.1	0	0.4	0.6	0.1	0.9	0.1	2.9	0	0	0	0
CCCS(=O)(=O)Nc1ccc(F)c(C(=O)c2c[nH]c3ncc(-c4ccc(Cl)cc4)cc23)c1F [Vemurafenib]	0	0.5	0.4	0	0	0	0	1.1	0.3	0	0	0.5
Nc1ccn([C@@H]2O[C@H](CO)[C@@H](O)[C@@H]2O)c(=O)n1 [Cytarabine]	2	10.6	14	0	4.4	1	8.6	6.6		2.3	14.9	14.3
Cc1ccc(NC(=O)c2ccc(CN3CCN(C)CC3)cc2)cc1Nc1nccc(-c2cccnc2)n1 [Imatinib]	0	1.3	0.2	0	1.5	0	0	0		0.3	0	0.5
CCN(CC)CCCC(C)Nc1ccnc2cc(Cl)ccc12 (stereo not drawn) [Chloroquine]	8.1	8.8	6.3	6.2	10	4.9		7.2		5.5	7.2	5.8
CC[C@H](CO)Nc1nc(NCc2ccccc2)c2ncn(C(C)C)c2n1 [Seliciclib]	0.1	3.4	1.1	0	0.3	1.1	1.2	0		0	0.4	1.6
